According to patent US11447466B2, “Substituted indole compounds useful as inhibitors of TLR7/8/9” (BRISTOL-MYERS SQUIBB COMPANY, priority 2017, dated 2022):

What was measured:
Format in all cases: cell-based
human TLR8 = target: T1, human TLR8 (Homo sapiens, UniProt Q9NR97); assay: TLR8 inhibition reporter assay (HEK-Blue SEAP reporter, R848 stimulation); details: HEK-Blue cells overexpressing human TLR8, SEAP reporter, R848 15.9 μM, 22 hour incubation
T1 construct: host or cells: HEK-Blue cells
T1 sequence (Q9NR97 27-1041): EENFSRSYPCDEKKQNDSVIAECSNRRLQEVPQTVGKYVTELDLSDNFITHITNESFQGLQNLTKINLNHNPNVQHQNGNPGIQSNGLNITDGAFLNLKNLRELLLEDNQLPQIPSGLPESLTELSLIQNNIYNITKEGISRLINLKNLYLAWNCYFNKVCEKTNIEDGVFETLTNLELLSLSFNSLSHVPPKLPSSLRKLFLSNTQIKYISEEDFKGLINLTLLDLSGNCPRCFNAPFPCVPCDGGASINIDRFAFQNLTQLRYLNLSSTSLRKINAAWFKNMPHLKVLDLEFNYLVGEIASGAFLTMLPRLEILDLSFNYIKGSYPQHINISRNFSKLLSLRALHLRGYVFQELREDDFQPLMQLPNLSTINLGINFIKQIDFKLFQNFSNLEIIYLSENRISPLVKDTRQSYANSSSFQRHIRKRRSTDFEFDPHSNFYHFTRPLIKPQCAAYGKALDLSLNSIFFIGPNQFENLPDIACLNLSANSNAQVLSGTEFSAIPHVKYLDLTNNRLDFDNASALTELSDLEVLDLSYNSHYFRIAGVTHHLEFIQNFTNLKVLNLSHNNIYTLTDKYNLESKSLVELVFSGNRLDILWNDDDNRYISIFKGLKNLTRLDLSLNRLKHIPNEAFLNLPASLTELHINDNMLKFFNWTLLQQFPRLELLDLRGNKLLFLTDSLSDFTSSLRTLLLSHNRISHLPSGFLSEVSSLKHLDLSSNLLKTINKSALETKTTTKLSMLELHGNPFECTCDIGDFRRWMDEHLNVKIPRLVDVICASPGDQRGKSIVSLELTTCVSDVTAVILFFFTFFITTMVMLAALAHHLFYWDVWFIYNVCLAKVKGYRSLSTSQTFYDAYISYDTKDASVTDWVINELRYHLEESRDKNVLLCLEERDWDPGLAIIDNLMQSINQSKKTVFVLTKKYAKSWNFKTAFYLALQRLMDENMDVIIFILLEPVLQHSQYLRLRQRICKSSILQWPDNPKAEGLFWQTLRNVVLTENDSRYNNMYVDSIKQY
Method in brief: (§1)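 Dose–response from 0.05 nM to 50 μM was run in HEK-Blue human TLR7, TLR8 and TLR9 reporter cells. After 30 min at room temperature with compound, ligand was added (TLR7 gardiquimod 7.5 μM; TLR8 R848 15.9 μM; TLR9 ODN2006 5 nM) and SEAP measured next day, at 22 h.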

human TLR7 = target: T2, human TLR7 (Homo sapiens, UniProt Q9NYK1); assay: TLR7 inhibition reporter assay (HEK-Blue SEAP reporter, gardiquimod stimulation); details: HEK-Blue cells overexpressing human TLR7, SEAP reporter, gardiquimod 7.5 μM, 22 hour incubation
T2 construct: host or cells: HEK-Blue cells
T2 sequence (Q9NYK1 27-1049): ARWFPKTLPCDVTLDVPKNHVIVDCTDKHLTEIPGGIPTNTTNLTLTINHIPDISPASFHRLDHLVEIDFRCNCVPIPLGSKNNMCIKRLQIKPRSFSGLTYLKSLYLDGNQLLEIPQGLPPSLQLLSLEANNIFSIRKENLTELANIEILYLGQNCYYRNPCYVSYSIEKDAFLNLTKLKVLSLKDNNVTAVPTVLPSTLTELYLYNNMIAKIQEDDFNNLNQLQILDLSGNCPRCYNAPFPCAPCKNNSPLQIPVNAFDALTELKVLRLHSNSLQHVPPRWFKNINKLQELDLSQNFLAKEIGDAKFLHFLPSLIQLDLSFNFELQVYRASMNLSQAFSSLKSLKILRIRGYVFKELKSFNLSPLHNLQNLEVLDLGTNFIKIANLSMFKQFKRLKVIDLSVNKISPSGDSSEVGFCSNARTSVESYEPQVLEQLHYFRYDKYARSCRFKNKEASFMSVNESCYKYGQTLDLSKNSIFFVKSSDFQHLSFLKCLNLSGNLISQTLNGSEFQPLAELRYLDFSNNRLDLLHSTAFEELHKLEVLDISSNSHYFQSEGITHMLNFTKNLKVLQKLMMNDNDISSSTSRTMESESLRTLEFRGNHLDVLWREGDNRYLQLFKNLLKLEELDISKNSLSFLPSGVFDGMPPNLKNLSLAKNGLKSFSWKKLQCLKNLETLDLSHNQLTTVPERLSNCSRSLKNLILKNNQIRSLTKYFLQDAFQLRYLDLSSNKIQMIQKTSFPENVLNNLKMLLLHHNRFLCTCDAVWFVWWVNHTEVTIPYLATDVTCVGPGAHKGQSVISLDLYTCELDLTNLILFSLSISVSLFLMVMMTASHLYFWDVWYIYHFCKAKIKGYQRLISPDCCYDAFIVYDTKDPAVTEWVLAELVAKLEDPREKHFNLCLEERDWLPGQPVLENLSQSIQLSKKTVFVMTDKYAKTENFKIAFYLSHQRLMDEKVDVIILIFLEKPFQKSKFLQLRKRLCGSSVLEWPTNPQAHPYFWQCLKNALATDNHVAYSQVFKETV
Method in brief: as §1

human TLR9 = target: T3, human TLR9 (Homo sapiens, UniProt Q9NR96); assay: TLR9 inhibition reporter assay (HEK-Blue SEAP reporter, ODN2006 stimulation); details: HEK-Blue cells overexpressing human TLR9, SEAP reporter, ODN2006 5 nM, 22 hour incubation
T3 construct: host or cells: HEK-Blue cells
T3 sequence (Q9NR96 26-1032): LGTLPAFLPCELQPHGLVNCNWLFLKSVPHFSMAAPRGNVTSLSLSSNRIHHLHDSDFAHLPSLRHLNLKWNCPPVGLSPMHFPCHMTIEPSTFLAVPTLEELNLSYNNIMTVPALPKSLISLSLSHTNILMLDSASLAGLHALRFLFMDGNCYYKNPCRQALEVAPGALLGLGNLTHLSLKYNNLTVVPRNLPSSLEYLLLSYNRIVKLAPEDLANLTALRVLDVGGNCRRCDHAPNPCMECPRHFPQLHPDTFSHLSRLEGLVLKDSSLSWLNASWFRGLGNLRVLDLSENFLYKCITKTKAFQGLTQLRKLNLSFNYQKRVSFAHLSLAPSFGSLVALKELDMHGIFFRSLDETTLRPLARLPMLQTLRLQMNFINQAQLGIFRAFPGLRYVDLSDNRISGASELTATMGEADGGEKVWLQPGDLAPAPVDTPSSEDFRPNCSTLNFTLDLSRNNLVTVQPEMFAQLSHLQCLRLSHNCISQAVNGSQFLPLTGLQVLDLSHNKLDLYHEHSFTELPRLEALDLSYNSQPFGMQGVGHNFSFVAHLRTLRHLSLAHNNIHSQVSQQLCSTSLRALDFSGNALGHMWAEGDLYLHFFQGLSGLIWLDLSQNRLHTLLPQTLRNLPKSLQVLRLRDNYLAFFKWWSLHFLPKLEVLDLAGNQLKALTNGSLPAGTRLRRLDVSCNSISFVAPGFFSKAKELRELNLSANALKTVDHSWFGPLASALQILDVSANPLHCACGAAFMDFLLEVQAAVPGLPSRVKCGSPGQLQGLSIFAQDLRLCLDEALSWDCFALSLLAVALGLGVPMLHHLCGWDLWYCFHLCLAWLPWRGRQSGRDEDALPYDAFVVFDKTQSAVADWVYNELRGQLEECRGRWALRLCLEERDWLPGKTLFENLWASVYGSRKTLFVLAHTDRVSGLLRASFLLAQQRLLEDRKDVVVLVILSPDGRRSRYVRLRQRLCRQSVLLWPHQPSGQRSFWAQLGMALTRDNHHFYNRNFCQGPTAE
Method in brief: as §1

IC50 (human TLR8) [nM] | IC50 (human TLR7) [nM] | IC50 (human TLR9) [nM] | SMILES
25.9 | 290 | 8510 | Cc1c(-c2[nH]c3ccc(C4CCN(CC(=O)N(C)C)CC4)cc3c2C(C)C)nn(C)c(=O)c1C [Example 130, 2-(4-(3-isopropyl-2-(1,4,5-trimethyl-6-oxo-1,6-dihydropyridazin-3-yl)-1H-indol-5-yl)piperidin-1-yl)-N,N-dimethylacetamide]
4.3 | 3.7 | 504 | CN[C@H](C)C(=O)N1CCC(c2ccc3[nH]c(-c4cc(C)c(=O)n(C)c4)c(C(C)C)c3c2)CC1 [Example 299, 5-(3-isopropyl-5-(1-(methyl-D-alanyl)piperidin-4-yl)-1H-indol-2-yl)-1,3-dimethylpyridin-2(1H)-one]
86.8 | 37.9 | 16700 | COCc1cc(-c2[nH]c3ccc(C4CCN(C5COC5)CC4)cc3c2C(C)C)cn(C)c1=O [Example 346, 5-(3-isopropyl-5-(1-(oxetan-3-yl)piperidin-4-yl)-1H-indol-2-yl)-3-(methoxymethyl)-1-methylpyridin-2(1H)-one]
15.3 | 183 | 1590 | Cc1c(-c2[nH]c3ccc(C4CCN(C(=O)CN(C)C)CC4)cc3c2C(C)C)cn(C)c(=O)c1C#N [Example 274, 5-(5-(1-(dimethylglycyl)piperidin-4-yl)-3-isopropyl-1H-indol-2-yl)-1,4-dimethyl-2-oxo-1,2-dihydropyridine-3-carbonitrile]
1.3 | 8 | 2030 | CC(C)c1c(-c2cc(-c3cncnc3)c(=O)n(C)c2)[nH]c2ccc(C3CCN(CC4COC4)CC3)cc12 [Example 94, 5-(3-isopropyl-5-(1-(oxetan-3-ylmethyl)piperidin-4-yl)-1H-indol-2-yl)-1-methyl-3-(pyrimidin-5-yl)pyridin-2(1H)-one]
1.3 | 2.3 | 5540 | Cc1cc(-c2[nH]c3ccc(C4CCN(CC(C)(C)O)CC4)cc3c2C(C)C)cn(C)c1=O [Example 310, 5-(5-(1-(2-hydroxy-2-methylpropyl)piperidin-4-yl)-3-isopropyl-1H-indol-2-yl)-1,3-dimethylpyridin-2(1H)-one]
6.8 | 60 | 574 | CCc1cc(-c2[nH]c3ccc(C4CCNCC4)cc3c2C(C)C)c(C)n(CC)c1=O [Example 35, 1,3-diethyl-5-(3-isopropyl-5-(piperidin-4-yl)-1H-indol-2-yl)-6-methylpyridin-2(1H)-one]
1.6 | 36.7 | 4370 | Cc1c(-c2[nH]c3ccc(C4CCN(CC(C)(C)O)CC4)cc3c2C(C)C)cc(C#N)c(=O)n1C [Example 321, 5-(5-(1-(2-hydroxy-2-methylpropyl)piperidin-4-yl)-3-isopropyl-1H-indol-2-yl)-1,6-dimethyl-2-oxo-1,2-dihydropyridine-3-carbonitrile]
157 | 48 | 3060 | Cc1cc(-c2[nH]c3ccc(C4CCN(CCCC(F)(F)F)CC4)cc3c2C(C)C)cn(Cc2ccccc2)c1=O [Example 111, 1-benzyl-5-(3-isopropyl-5-(1-(4,4,4-trifluorobutyl)piperidin-4-yl)-1H-indol-2-yl)-3-methylpyridin-2(1H)-one]
13.6 | 12 | 1950 | CCn1cc(-c2[nH]c3ccc(C4CCN(CC(=O)N(C)C)CC4)cc3c2C(C)C)c(C)c(C)c1=O [Example 136, 2-(4-(2-(1-ethyl-4,5-dimethyl-6-oxo-1,6-dihydropyridin-3-yl)-3-isopropyl-1H-indol-5-yl)piperidin-1-yl)-N,N-dimethylacetamide]
10.3 | 7.9 | 2380 | CCc1cc(-c2[nH]c3ccc(C4CCN(CC(=O)N(C)C)CC4)cc3c2C(C)C)cn(C)c1=O [Example 168, 2-(4-(2-(5-ethyl-1-methyl-6-oxo-1,6-dihydropyridin-3-yl)-3-isopropyl-1H-indol-5-yl)piperidin-1-yl)-N,N-dimethylacetamide]
6.9 | 29.9 | 151 | CNCCN1CCC(c2ccc3[nH]c(-c4ccc(=O)n(C)c4)c(C(C)C)c3c2)CC1 [Example 172, 5-(3-isopropyl-5-(1-(2-(methylamino)ethyl)piperidin-4-yl)-1H-indol-2-yl)-1-methylpyridin-2(1H)-one]
4.8 | 56.3 | 5020 | Cc1c(-c2[nH]c3ccc(C4CCN(CC(=O)N(C)C)CC4)cc3c2C(C)C)cn(C)c(=O)c1C#N [Example 147, 2-(4-(2-(5-cyano-1,4-dimethyl-6-oxo-1,6-dihydropyridin-3-yl)-3-isopropyl-1H-indol-5-yl)piperidin-1-yl)-N,N-dimethylacetamide]
4.9 | 20.9 | 4330 | Cc1cc(-c2[nH]c3ccc(C4CCN(CCC(C)(C)O)CC4)cc3c2C(C)C)c(C)n(C)c1=O [Example 74, 5-(5-(1-(3-hydroxy-3-methylbutyl)piperidin-4-yl)-3-isopropyl-1H-indol-2-yl)-1,3,6-trimethylpyridin-2(1H)-one]
